Inconclusive results and toxic doses are left out. How the source made its calls: active means survival T/C of 150% or more; inactive means T/C below 125% in these data.
System: BDF1 mice, B16 melanoma ip, median survival T/C
Experiment: NCI In Vivo Anticancer Drug Screen. Data for tumor model B16 Melanoma (intraperitoneal) in B6D2F1 (BDF1) mice
Conditions: endpoint: median survival time, higher = longer survival
In short: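 Read-out: survival or tumor size, given as treated/control ratio. Controls received vehicle only; animals bore transplantable tumors.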

[1] = dose: 50.0 mg/kg/injection, schedule: Q01DX009 (ip), vehicle: water
[2] = dose: 50.0 mg/kg/injection, schedule: Q01DX009 (ip), vehicle: saline with Tween-80
[3] = dose: 100.0 mg/kg/injection, schedule: Q01DX009 (ip), vehicle: Klucel (hydroxypropylcellulose) (HPC)
[4] = dose: 100.0 mg/kg/injection, schedule: Q01DX009 (ip), vehicle: saline with Tween-80
[5] = dose: 200.0 mg/kg/injection, schedule: Q01DX009 (ip), vehicle: saline with Tween-80
[6] = dose: 400.0 mg/kg/injection, schedule: Q01DX009 (ip), vehicle: Klucel (hydroxypropylcellulose) (HPC)
[7] = dose: 75.0 mg/kg/injection, schedule: Q01DX009 (ip), vehicle: Klucel (hydroxypropylcellulose) (HPC)
[8] = dose: 150.0 mg/kg/injection, schedule: Q01DX009 (ip), vehicle: Klucel (hydroxypropylcellulose) (HPC)
[9] = dose: 25.0 mg/kg/injection, schedule: Q01DX009 (ip), vehicle: saline with Tween-80
[10] = dose: 100.0 mg/kg/injection, schedule: Q04DX003 (ip), vehicle: Klucel (hydroxypropylcellulose) (HPC)
[11] = dose: 25.0 mg/kg/injection, schedule: Q01DX009 (ip), vehicle: Klucel (hydroxypropylcellulose) (HPC)
[12] = dose: 200.0 mg/kg/injection, schedule: Q01DX009 (ip), vehicle: Klucel (hydroxypropylcellulose) (HPC)
[13] = dose: 150.0 mg/kg/injection, schedule: Q04DX003 (ip), vehicle: saline with Tween-80
[14] = dose: 50.0 mg/kg/injection, schedule: Q01DX009 (ip), vehicle: Klucel (hydroxypropylcellulose) (HPC)
[15] = dose: 100.0 mg/kg/injection, schedule: Q04DX003 (ip), vehicle: saline with Tween-80

Measured: T/C

NC(=S)c1ncn(C2OC(CO)C(O)C2O)c1N (centres undefined)
inactive: dose: 12.5 mg/kg/injection, schedule: Q01DX009 (ip), vehicle: saline 107 % of control | dose: 25.0 mg/kg/injection, schedule: Q01DX009 (ip), vehicle: saline 105 % of control | dose: 50.0 mg/kg/injection, schedule: Q01DX009 (ip), vehicle: saline 105 % of control | dose: 100.0 mg/kg/injection, schedule: Q01DX009 (ip), vehicle: saline 102 % of control | dose: 200.0 mg/kg/injection, schedule: Q01DX009 (ip), vehicle: saline 103 % of control | dose: 400.0 mg/kg/injection, schedule: Q01DX009 (ip), vehicle: saline 95 % of control

Cc1cc(C)c(COCc2cc(C)c(C)cc2C)cc1C
inactive: [1] 95 % of control | dose: 100.0 mg/kg/injection, schedule: Q01DX009 (ip), vehicle: water 95 % of control

Cc1cccc(NS(=O)(=O)c2ccccc2)c1C
inactive: [2] 98 % of control | [3] 96 % of control | [4] 98 % of control | [5] 97 % of control | [6] 88 % of control

NC(=O)c1ccccc1OCc1ccccc1
inactive: [7] 100 % of control | [8] 101 % of control | dose: 300.0 mg/kg/injection, schedule: Q01DX009 (ip), vehicle: Klucel (hydroxypropylcellulose) (HPC) 101 % of control

COc1cc2cc[n+](C)cc2cc1OC
inactive: dose: 6.25 mg/kg/injection, schedule: Q01DX009 (ip), vehicle: water 95 % of control | dose: 12.5 mg/kg/injection, schedule: Q01DX009 (ip), vehicle: water 95 % of control | dose: 25.0 mg/kg/injection, schedule: Q01DX009 (ip), vehicle: water 97 % of control | [1] 92 % of control

CS(=O)(=O)c1cnc2ccccc2n1
inactive: [9] 94 % of control | [2] 86 % of control

NC(=O)C1(N2CCCC2)CCN(Cc2ccccc2)CC1
inactive: dose: 25.0 mg/kg/injection, schedule: Q04DX003 (ip), vehicle: Klucel (hydroxypropylcellulose) (HPC) 105 % of control | dose: 50.0 mg/kg/injection, schedule: Q04DX003 (ip), vehicle: Klucel (hydroxypropylcellulose) (HPC) 94 % of control | [10] 100 % of control

CCCCCCCCCCC(O)CN1CCN(c2ccc(C)cc2)CC1 (centres undefined)
inactive: dose: 12.5 mg/kg/injection, schedule: Q01DX009 (ip), vehicle: Klucel (hydroxypropylcellulose) (HPC) 92 % of control | [11] 105 % of control | [12] 86 % of control

CCCCCCCCCC(O)CCCCC (centres undefined)
inactive: dose: 75.0 mg/kg/injection, schedule: Q04DX003 (ip), vehicle: saline with Tween-80 102 % of control | [13] 94 % of control | dose: 300.0 mg/kg/injection, schedule: Q04DX003 (ip), vehicle: saline with Tween-80 100 % of control

COc1ccc(/C=C2\CCC3C(=O)CCCC3(C)C2=O)cc1 (centres undefined)
inactive: [10] 94 % of control | dose: 200.0 mg/kg/injection, schedule: Q04DX003 (ip), vehicle: Klucel (hydroxypropylcellulose) (HPC) 92 % of control | dose: 400.0 mg/kg/injection, schedule: Q04DX003 (ip), vehicle: Klucel (hydroxypropylcellulose) (HPC) 89 % of control

BrC1c2cccc3cccc(c23)C1Br (centres undefined)
inactive: dose: 6.25 mg/kg/injection, schedule: Q01DX009 (ip), vehicle: saline with Tween-80 116 % of control | dose: 12.5 mg/kg/injection, schedule: Q01DX009 (ip), vehicle: saline with Tween-80 113 % of control | [9] 124 % of control | [2] 121 % of control

S=C(NNc1ccccc1)Nc1ccccc1
inactive: [11] 97 % of control | [14] 106 % of control

O=C(O)c1ccc2c3c(ccc(C(=O)O)c13)CC2
inactive: [11] 92 % of control | [14] 91 % of control

C1CC[N-]CC1.C1CC[N-]CC1.C1CC[N-]CC1.C1CC[N-]CC1.[Cl][Co][Cl]
inactive: dose: 37.5 mg/kg/injection, schedule: Q01DX009 (ip), vehicle: saline with Tween-80 103 % of control | dose: 75.0 mg/kg/injection, schedule: Q01DX009 (ip), vehicle: saline with Tween-80 87 % of control

NCCCCS(=O)(=O)Nc1ccc(Nc2c3ccccc3nc3cc([N+](=O)[O-])ccc23)cc1
inactive: dose: 50.0 mg/kg/injection, schedule: Q01DX001 (ip), vehicle: saline sonified 97 % of control | dose: 100.0 mg/kg/injection, schedule: Q01DX001 (ip), vehicle: saline sonified 105 % of control | dose: 200.0 mg/kg/injection, schedule: Q01DX001 (ip), vehicle: saline sonified 113 % of control

CS(=O)(=O)OCCCCCCCCCOS(C)(=O)=O
inactive: [11] 94 % of control | [14] 88 % of control | [3] 102 % of control

C=C1C(=O)OCC2C(C(=O)O)=CC3C(C)C(C)=CC123 (centres undefined)
inactive: dose: 2.5 mg/kg/injection, schedule: Q01DX009 (ip), vehicle: Klucel (hydroxypropylcellulose) (HPC) 106 % of control | dose: 3.12 mg/kg/injection, schedule: Q01DX009 (ip), vehicle: other 94 % of control | dose: 5.0 mg/kg/injection, schedule: Q01DX009 (ip), vehicle: Klucel (hydroxypropylcellulose) (HPC) 98 % of control | dose: 6.25 mg/kg/injection, schedule: Q01DX009 (ip), vehicle: other 101 % of control | dose: 10.0 mg/kg/injection, schedule: Q01DX009 (ip), vehicle: Klucel (hydroxypropylcellulose) (HPC) 96 % of control | dose: 12.5 mg/kg/injection, schedule: Q01DX009 (ip), vehicle: other 101 % of control | dose: 20.0 mg/kg/injection, schedule: Q01DX009 (ip), vehicle: Klucel (hydroxypropylcellulose) (HPC) 98 % of control | dose: 25.0 mg/kg/injection, schedule: Q01DX009 (ip), vehicle: other 111 % of control | dose: 40.0 mg/kg/injection, schedule: Q01DX009 (ip), vehicle: Klucel (hydroxypropylcellulose) (HPC) 105 % of control

COc1ccc(N=C(c2ccccc2)c2ccccc2)cc1
inactive: [15] 95 % of control | dose: 200.0 mg/kg/injection, schedule: Q04DX003 (ip), vehicle: saline with Tween-80 86 % of control | dose: 400.0 mg/kg/injection, schedule: Q04DX003 (ip), vehicle: saline with Tween-80 90 % of control

CN(C(=N)N)c1ccc(C(=O)Oc2ccc([N+](=O)[O-])cc2)cc1
inactive: [14] 104 % of control | [3] 101 % of control | [12] 103 % of control

CC(=O)CC(=O)NC1CCCC1
inactive: [3] 96 % of control | [12] 96 % of control | [6] 107 % of control

CCOC(=O)/C=C/c1ccc2c(c1)OCO2
inactive: dose: 66.0 mg/kg/injection, schedule: Q04DX003 (ip), vehicle: saline with Tween-80 97 % of control | [4] 104 % of control | [15] 97 % of control | [13] 100 % of control | [5] 106 % of control | dose: 400.0 mg/kg/injection, schedule: Q01DX009 (ip), vehicle: saline with Tween-80 102 % of control

C(=C\c1cnc2ccccc2n1)/c1ccc2c(c1)OCO2
inactive: [7] 105 % of control | [8] 94 % of control

Cn1c2c(sc1=O)CCC2
inactive: [14] 113 % of control | [3] 100 % of control | [12] 97 % of control
